Structures are written as SMILES.

Holding throughout (assay): NADH oxidation at […] nm, reductive amination of 2-oxoglutarate
Holding throughout (assay type): biochemical

Assay [1] has as its target hGDH2 (human glutamate dehydrogenase isozyme 2) (Homo sapiens, UniProt P49448, C327A).
The target in assay [2] is hGDH2 (human glutamate dehydrogenase isozyme 2) (Homo sapiens, UniProt P49448, C146A).
Assay [3] concerns the target hGDH2 (human glutamate dehydrogenase isozyme 2) (Homo sapiens, UniProt P49448, C172A).
For assay [4], the target named is hGDH2 (human glutamate dehydrogenase isozyme 2) (Homo sapiens, UniProt P49448).
Sequence of hGDH2 (human glutamate dehydrogenase isozyme 2) (Homo sapiens, UniProt P49448) (P49448 54-558): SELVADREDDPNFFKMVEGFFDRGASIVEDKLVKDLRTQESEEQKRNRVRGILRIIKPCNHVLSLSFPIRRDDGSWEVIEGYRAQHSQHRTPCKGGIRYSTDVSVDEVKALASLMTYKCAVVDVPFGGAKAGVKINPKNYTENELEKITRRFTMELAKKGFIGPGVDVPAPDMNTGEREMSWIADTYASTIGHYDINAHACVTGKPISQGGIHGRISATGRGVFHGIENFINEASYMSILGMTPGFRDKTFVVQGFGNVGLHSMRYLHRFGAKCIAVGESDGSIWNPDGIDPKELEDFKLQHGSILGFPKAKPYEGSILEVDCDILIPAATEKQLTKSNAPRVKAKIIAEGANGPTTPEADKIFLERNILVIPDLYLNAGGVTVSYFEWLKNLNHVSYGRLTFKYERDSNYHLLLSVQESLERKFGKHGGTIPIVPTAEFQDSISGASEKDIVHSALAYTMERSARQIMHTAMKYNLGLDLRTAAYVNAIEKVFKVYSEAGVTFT
Assay [5] deals with hGDH2 (human glutamate dehydrogenase isozyme 2) (Homo sapiens, UniProt P49448, C254A).
Sequence of hGDH2 (human glutamate dehydrogenase isozyme 2) (Homo sapiens, UniProt P49448, C254A) (P49448 54-558 C254A): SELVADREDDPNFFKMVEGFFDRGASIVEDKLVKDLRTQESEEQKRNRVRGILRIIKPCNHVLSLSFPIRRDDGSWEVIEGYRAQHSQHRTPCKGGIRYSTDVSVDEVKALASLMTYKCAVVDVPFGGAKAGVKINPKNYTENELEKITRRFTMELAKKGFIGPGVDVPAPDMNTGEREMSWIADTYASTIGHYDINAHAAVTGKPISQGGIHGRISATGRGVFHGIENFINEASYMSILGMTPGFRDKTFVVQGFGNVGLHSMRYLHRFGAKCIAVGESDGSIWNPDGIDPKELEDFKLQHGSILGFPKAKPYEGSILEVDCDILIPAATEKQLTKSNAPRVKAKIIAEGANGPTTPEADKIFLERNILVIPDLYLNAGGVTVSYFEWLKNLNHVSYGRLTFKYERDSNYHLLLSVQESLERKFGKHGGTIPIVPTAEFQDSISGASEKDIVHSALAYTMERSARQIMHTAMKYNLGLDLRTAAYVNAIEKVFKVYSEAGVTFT
Assay [6] deals with hGDH2 (human glutamate dehydrogenase isozyme 2) (Homo sapiens, UniProt P49448, C112A).
Sequence of hGDH2 (human glutamate dehydrogenase isozyme 2) (Homo sapiens, UniProt P49448, C112A) (P49448 54-558 C112A): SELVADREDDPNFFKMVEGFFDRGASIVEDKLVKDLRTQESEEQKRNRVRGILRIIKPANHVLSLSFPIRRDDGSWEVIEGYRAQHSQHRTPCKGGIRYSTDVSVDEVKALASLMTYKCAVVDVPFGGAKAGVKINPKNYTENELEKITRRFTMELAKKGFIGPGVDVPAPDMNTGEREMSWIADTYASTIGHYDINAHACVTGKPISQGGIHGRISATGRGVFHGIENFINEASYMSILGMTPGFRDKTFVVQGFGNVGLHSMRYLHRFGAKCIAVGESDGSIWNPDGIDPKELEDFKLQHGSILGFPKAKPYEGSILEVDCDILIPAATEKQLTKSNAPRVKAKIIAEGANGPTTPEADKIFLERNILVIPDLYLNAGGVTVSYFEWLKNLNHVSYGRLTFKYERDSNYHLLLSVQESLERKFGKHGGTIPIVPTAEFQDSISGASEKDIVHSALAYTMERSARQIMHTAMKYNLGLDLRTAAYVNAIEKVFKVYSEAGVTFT

Sequence of hGDH2 (human glutamate dehydrogenase isozyme 2) (Homo sapiens, UniProt P49448, C146A) (P49448 54-558 C146A): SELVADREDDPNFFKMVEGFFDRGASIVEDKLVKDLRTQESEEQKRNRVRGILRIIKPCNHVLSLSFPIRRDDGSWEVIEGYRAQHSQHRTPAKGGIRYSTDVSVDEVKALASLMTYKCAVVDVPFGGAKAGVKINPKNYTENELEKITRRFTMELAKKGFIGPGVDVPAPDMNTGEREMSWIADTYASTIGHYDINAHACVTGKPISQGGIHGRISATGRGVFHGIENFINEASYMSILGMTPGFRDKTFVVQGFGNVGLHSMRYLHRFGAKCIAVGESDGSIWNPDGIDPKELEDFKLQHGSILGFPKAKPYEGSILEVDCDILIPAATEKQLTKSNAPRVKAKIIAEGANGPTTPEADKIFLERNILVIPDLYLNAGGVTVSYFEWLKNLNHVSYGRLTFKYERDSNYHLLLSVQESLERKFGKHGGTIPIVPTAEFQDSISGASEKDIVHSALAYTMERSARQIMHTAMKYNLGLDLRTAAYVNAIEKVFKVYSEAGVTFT
Sequence of hGDH2 (human glutamate dehydrogenase isozyme 2) (Homo sapiens, UniProt P49448, C327A) (P49448 54-558 C327A): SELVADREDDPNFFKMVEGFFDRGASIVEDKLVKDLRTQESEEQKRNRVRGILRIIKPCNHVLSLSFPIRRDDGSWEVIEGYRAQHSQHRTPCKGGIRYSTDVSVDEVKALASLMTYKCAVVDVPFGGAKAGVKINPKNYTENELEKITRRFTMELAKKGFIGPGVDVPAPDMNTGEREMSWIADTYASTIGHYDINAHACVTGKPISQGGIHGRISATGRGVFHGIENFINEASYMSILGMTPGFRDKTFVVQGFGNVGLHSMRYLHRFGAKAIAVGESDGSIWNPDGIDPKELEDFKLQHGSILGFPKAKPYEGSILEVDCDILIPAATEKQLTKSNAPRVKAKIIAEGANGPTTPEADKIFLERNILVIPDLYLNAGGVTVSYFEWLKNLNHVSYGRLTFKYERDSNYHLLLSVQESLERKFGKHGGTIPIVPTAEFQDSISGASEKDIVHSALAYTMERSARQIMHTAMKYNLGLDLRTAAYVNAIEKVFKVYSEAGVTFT
Sequence of hGDH2 (human glutamate dehydrogenase isozyme 2) (Homo sapiens, UniProt P49448, C172A) (P49448 54-558 C172A): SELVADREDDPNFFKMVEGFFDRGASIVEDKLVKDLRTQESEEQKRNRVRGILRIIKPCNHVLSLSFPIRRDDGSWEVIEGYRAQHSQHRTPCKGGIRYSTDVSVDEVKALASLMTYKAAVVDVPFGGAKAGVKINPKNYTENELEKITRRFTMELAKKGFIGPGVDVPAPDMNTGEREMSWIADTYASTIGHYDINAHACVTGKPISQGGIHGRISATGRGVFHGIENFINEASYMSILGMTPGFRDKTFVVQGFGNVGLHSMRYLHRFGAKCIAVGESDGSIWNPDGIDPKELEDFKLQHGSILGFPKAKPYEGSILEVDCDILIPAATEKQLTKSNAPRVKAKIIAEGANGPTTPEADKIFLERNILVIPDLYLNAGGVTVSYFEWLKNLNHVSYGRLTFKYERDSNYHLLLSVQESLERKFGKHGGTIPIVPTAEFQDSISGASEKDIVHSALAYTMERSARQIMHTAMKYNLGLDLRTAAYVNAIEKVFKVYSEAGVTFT

Turning to `CCCCCCCCCCCCCCCC(=O)SCCNC(=O)CCNC(=O)[C@H](O)C(C)(C)COP(=O)(O)OP(=O)(O)OC[C@H]1O[C@@H](n2cnc3c(N)ncnc32)[C@H](O)[C@@H]1OP(=O)(O)O` [palmitoyl-CoA], the IC50 in assay [1] was determined as 2310 nM; in assay [2], 2600 nM; in assay [3] it was 1980 nM; in assay [4], 1820 nM; in assay [5], 2470 nM; in assay [6] it was 2150 nM.
